The text below walks through data of article PMC9380819 (ACS Omega, 2022).

In general, IC50 refers to the midpoint of a concentration-inhibition curve. As a reminder, the Kd is the equilibrium constant for the complex coming apart. A lower Kd goes with tighter binding. As a reminder, the EC50 is the midpoint of the concentration-response curve.

Each structure is given as a SMILES string. “Also recorded” adds a separate entry of the source.

Data set [1] has as its system spike protein–ACE2 interaction. The settings on record: not tested against virally infected cells; cited from earlier work.
Data set [2] has as its target SARS-CoV-2 spike RBD (331–528 amino acids) (Severe acute respiratory syndrome coronavirus 2, UniProt P0DTC2). Put plainly: biochemical. It is filed as binding.
For data set [3], the target named is SARS-CoV-2 spike RBD: hACE2 (Severe acute respiratory syndrome coronavirus 2, UniProt P0DTC2). It is filed as biochemical.
Data set [4] has as its system SARS-CoV-2. The format is cell-based.
The subject of data set [5] is SARS-CoV-2 (isolate USA WA1/2020). The data set is described as follows: microbe, parasite or virus in culture. It is filed as cell-based. The settings on record: Severe acute respiratory syndrome coronavirus 2, Calu-3.
A short description of the next data set: in vitro. The settings on record: human.
In data set [6] the test system is SARS-CoV-2. Conditions: 10 μM, after 48 h; cited from earlier work.
The subject of data set [7] is SARS-CoV-2. The settings on record: cited from earlier work.
Data set [8] has as its system SARS-CoV-2. The settings on record: cited from earlier work. The source holds these as a separate data set.
Data set [9] relates to SARS-CoV-2. The settings on record: Vero cells; cited from earlier work.
In the next data set the test system is ACE2. The settings on record: read-out: IC50 exopeptidase activity; cited from earlier work.

With `O=c1c(O)c(-c2ccc(O)c(O)c2)oc2cc(O)cc(O)c12` [Quercetin], in data set [1], the IC50 is 7 µM.

On to `COc1ccccc1OCCNCC(O)COc1cccc2[nH]c3ccccc3c12` (stereo not drawn) [carvedilol], for which the Kd in [2] was 0.364 ± 0.022 µM. In data set [3], the “disruption of the interaction between the RBD and ACE2” value (“disruption” for short) is recorded as “none of the compounds tested were able to disrupt the interaction”. Besides, the “SARS-CoV-2 adsorption to Vero E6 cells” value in the data set with SARS-CoV-2 [4] is on record as “statistically decreased SARS-CoV-2 adsorption; also recorded: highest reduction on SARS-CoV-2 adsorption”. In data set [5], this molecule came in with an EC50 of 7.57 µM. In addition, the CC50 in the data set “in vitro” turned out to be 18.1 µM. Moreover, the “inhibition of SARS-CoV-2-induced cytotoxicity of Caco-2 cells” value with SARS-CoV-2 [6] is “did not show activity”.

Take `CCCCC/C=C\C/C=C\CCCCCCCC(=O)O` [linoleic acid]: the “disruption” value in data set [3] was “not able to disrupt the interaction”.

On to `CC(C)NCC(O)COc1cccc2[nH]ccc12` (stereo not drawn) [pindolol, Pindolol], for which the Kd in data set [2] is 0.57 ± 0.144 µM. Further, the “disruption” value in data set [3] is “none of the compounds tested were able to disrupt the interaction”.

For the molecule `CC(C)NCC(O)COc1ccc(CC(N)=O)cc1` (stereo not drawn) [atenolol], in the data set with SARS-CoV-2 [4], the “SARS-CoV-2 adsorption to Vero E6 cells” value is on record as “statistically decreased SARS-CoV-2 adsorption”. Moreover, the “inhibition of SARS-CoV-2-induced cytotoxicity of Caco-2 cells” value in the data set with SARS-CoV-2 [6] is recorded as 25.84%.

Turning to `COc1ccc2nc3cc(Cl)ccc3c(Nc3cc(CN4CCCC4)c(O)c(CN4CCCC4)c3)c2n1` [pyronaridine], the “activity in A549-ACE2 cells” value in the data set with SARS-CoV-2 [7] is “sub-micromolar”. The “efficacy in a mouse model infected with SARS-CoV-2” value in the data set on SARS-CoV-2 [8] was “demonstrated efficacy”.

For `CCN(CC)CCOc1ccc2c(c1)C(=O)c1cc(OCCN(CC)CC)ccc1-2` [tilorone], the “activity in A549-ACE2 cells” value in the data set on SARS-CoV-2 [7] is on record as “sub-micromolar”.

Regarding `Oc1c(I)cc(Cl)c2cccnc12` [cliquinol], in the data set with SARS-CoV-2 [9], the EC50 was 12.6 µM. Besides, the IC50 with ACE2 is 5.36 µM.

With `CCN(CC)CCCC(C)Nc1c2ccc(Cl)cc2nc2ccc(OC)cc12` (stereo not drawn) [quinacrine], in the data set on SARS-CoV-2 [7], the “activity in A549-ACE2 cells” value is reported as “sub-micromolar”.

`CCC(CC)COC(=O)[C@H](C)N[P@](=O)(OC[C@H]1O[C@@](C#N)(c2ccc3c(N)ncnn23)[C@H](O)[C@@H]1O)Oc1ccccc1` [Remdesivir]: the EC50 in data set [5] came to 0.08 µM.

`CC(C)(C)NCC(O)COc1cccc2c1CCC(=O)N2` (stereo not drawn) [carteolol] came in with a Kd in data set [2] of 0.459 ± 0.111 µM. In data set [3], the “disruption” value is given as “none of the compounds tested were able to disrupt the interaction”.

Take `CC(C)NCC(O)COc1ccc(COCCOC(C)C)cc1` (racemic) [bisoprolol, (±)-Bisoprolol hemifumarate]: in data set [2], the “binding to the RBD spike in MST” value was “did not bind”. Further, the “disruption” value in [3] was “none of the compounds tested were able to disrupt the interaction”. In the data set on SARS-CoV-2 [4], the “SARS-CoV-2 adsorption to Vero E6 cells” value was “statistically decreased SARS-CoV-2 adsorption”.
